Reference: US20120190703A1, “SALTS OF 13A-(S)DESOXYTYLOPHORININE, PREPARATION METHODS AND PHARMACEUTICAL COMPOSITIONS AND USES THEREOF” (priority 2009, published 2012)
“And” between values parts separate entries of the source, which are not always exact repeats. Equal entries are not always repeated. Where two headings read alike, the source gives them in different places. Marks after values point to notes of the source that are not given here.

Columns and labels:
Solubility in water = assay type: physicochemical
H22 tumor-bearing mice = settings: intragastric once daily
Source text: To determine the pharmacodynamic characters of 13a-(S)-deoxytylophorinine and its salts, the impact of these compounds to the tumor growth in H22 tumor-bearing mice was surveyed.
Male Kunming mice were obtained from the Laboratory Animal Center, Academy of Military Medical Science. Body weight 18˜22 g. 6 animals per group, totally 10 groups, 60 animals.
(+)-13a-(S)-deoxytylophorinine, (+)-13a-(S)-deoxytylophorinine Tartrate, (+)-13a-(S)-deoxytylophorinine Maleate, (+)-13a-(S)-deoxytylophorinine Citrate, Cytoxane (CTX) as positive control.
(+)-13a-(S)-deoxytylophorinine was administered at high dose (5 mg/kg) and low dose (2.5 mg/kg). Three (+)-13a-(S)-deoxytylophorinine salts were administered at high dose and low dose as equal moles with their prototype (Tartrate: 7.05 mg/kg, 3.53 mg/kg; Malate: 6.60 mg/kg, 3.30 mg/kg; Citrate: 7.90 mg/kg, 3.95 mg/kg).
Animals were reared in SPF grade circumstance to be observed for 24 h. The tumor cells liquid which resuscitated in abdominal cavity of KM mice was diluted with aseptic normal saline at 1:3 ratio. The resulting liquid was inoculated subcutaneously at forelimb with 0.2 mL every animal. After the injection over, the animals were divided to […] with 6 animals per group.
Four experimental samples were intragastric administered once daily 24 h after inoculation. The positive control CTX was intraperitoneal injected once daily. The animal body weight was recorded every day.

[1] = Plasma pharmacokinetics after oral administration in mice
Description: To determine the pharmacokinetic characters of 13a-(S)-deoxytylophorinine and its salts, the studies about plasma pharmacokinetics and the character of distribution in brain were pursued.
(§1) Male ICR mice. Body weight 18˜22 g.
(+)-13a-(S)-deoxytylophorinine Tartrate, (+)-13a-(S)-deoxytylophorinine Maleate, (+)-13a-(S)-deoxytylophorinine Citrate. All were dissolved in distilled water as 0.6 mg/ml solution before experiment progressed.
72 mice were divided to 3 groups with 24 animals per group, fasting for 16 h and drinking water freely. […] Plasma was isolated by centrifugalization. After the salts were administered orally, the brain tissues of mice were collected at 5 min, 15 min, 2 h time points. 25% tissue homogenate was prepared with normal saline addition. 200 μL of homogenate and plasma were added isovolumic MeCN to precipitate protein. 5 μL of clear supernatant was analyzed by LC/MS/MS.
(+)-13a-(S)-deoxytylophorinine was dissolved in DMSO and then diluted with MeOH with concentration 10, 50, 100, 500, 1000 and 2500 ng/ml respectively. 10 μl of standard solutions of (+)-13a-(S)-deoxytylophorinine with different concentration above were added to 200 μl of blank plasma sequently to adjust the concentration to 0.5, 2.5, 5, 25, 50, 125 ng/ml respectively. MeCN was added to the solution to precipitate protein, and 5 μl of result clear supernatant was analyzed with LC/MS/MS. Linear regression was ran with the peak area of (+)-13a-(S)-deoxytylophorinine as ordinate and the concentrations as abscissa.

[2] = Drug distribution in brain tissue after oral administration in mice; assay type: in vivo, ICR mice; settings: for Brain contents of (+)-13a-(S)-deoxytylophorinine (ng/ml), Mean ± SD / Brain contents of (+)-13a-(S)-deoxytylophorinine (ng/ml), individual animals 1-3: 6 mg/kg oral
Description: as §1
Plasma was isolated by centrifugalization. […] 25% tissue homogenate was prepared with normal saline addition.
The drug concentration-time data in brain tissue after administered orally of (+)-13a-(S)-deoxytylophorinine tartrate, maleate and citrate were represented in Table 8˜10 and FIG. 6˜8. […] (+)-13a-(S)-deoxytylophorinine could be detected in 5 min. The peak concentration was reached after 15 min, and the compound still can be detected after 2 h after administration.

[3] = high dose × 7 d, equal moles: prototype 5.0, tartrate 7.05, maleate 6.60, citrate 7.90 mg/kg
[4] = low dose × 7 d, equal moles: prototype 2.5, tartrate 3.53, maleate 3.30, citrate 3.95 mg/kg
[5] = 6 mg/kg oral, mice, Time (min) 0.08
[6] = 6 mg/kg oral, mice, Time (min) 0.25
[7] = 6 mg/kg oral, mice, Time (min) 0.5
[8] = 6 mg/kg oral, mice, Time (min) 1
[9] = 6 mg/kg oral, mice, Time (min) 2
[10] = 6 mg/kg oral, mice, Time (min) 3
[11] = 6 mg/kg oral, mice, Time (min) 4
[12] = 6 mg/kg oral, mice, Time (min) 6
[13] = male, ICR, mouse, plasma, po, 6 mg/kg

SMILES: COc1ccc2c3c(c4cc(OC)c(OC)cc4c2c1)CN1CCC[C@H]1C3.O=C(O)/C=C\C(=O)O [Maleate, (+)-13a-(S)-deoxytylophorinine Maleate]
- Solubility in water (words) (Solubility in water): soluble in water
- solubility (Solubility in water; water): 44 mg/mL
- Animal No. (Initial/Final) (H22 tumor-bearing mice; [3]): 6/4
- Body Weight(g) Final (H22 tumor-bearing mice; [3]): 13.62 ± 2.08 g
- Body Weight(g) Initial (H22 tumor-bearing mice; [3]): 21.17 ± 0.98 g⁻¹
- Inhibition (%) (H22 tumor-bearing mice; [3]): 73.58** %
- Tumor Weight (g, mean ± SD) (H22 tumor-bearing mice; [3]): 0.30 ± 0.24 g
- Animal No. (Initial/Final) (H22 tumor-bearing mice; [4]): 6/6
- Body Weight(g) Final (H22 tumor-bearing mice; [4]): 23.79 ± 0.52 g
- Body Weight(g) Initial (H22 tumor-bearing mice; [4]): 22.50 ± 1.05 g⁻¹
- Inhibition (%) (H22 tumor-bearing mice; [4]): 45.56%
- Tumor Weight (g, mean ± SD) (H22 tumor-bearing mice; [4]): 0.62 ± 0.31 g
- Peak concentration in blood ([1]; 6 mg/kg oral, mice): 35.4 ± 3.5 ng/mL
- Time of peak concentration in blood ([1]; 6 mg/kg oral, mice): 5 min
- t½z ([1]; 6 mg/kg oral, mice, plasma, non-compartment model): 1.72 h
- Blood concentration of (+)-13a-(S)-deoxytylophorinine (ng/ml), Mean ± SD [1, 5]: 35.4 ± 3.5 ng/mL
- Blood concentration of (+)-13a-(S)-deoxytylophorinine (ng/ml), individual animals 1-3 [1, 5]: 33.0 ng/mL and 37.9 ng/mL
- Blood concentration of (+)-13a-(S)-deoxytylophorinine (ng/ml), Mean ± SD [1, 6]: 27.4 ± 6.2 ng/mL
- Blood concentration of (+)-13a-(S)-deoxytylophorinine (ng/ml), individual animals 1-3 [1, 6]: 24.2 ng/mL and 23.5 ng/mL and 34.6 ng/mL
- Blood concentration of (+)-13a-(S)-deoxytylophorinine (ng/ml), Mean ± SD [1, 7]: 12.2 ± 4.0 ng/mL
- Blood concentration of (+)-13a-(S)-deoxytylophorinine (ng/ml), individual animals 1-3 [1, 7]: 15.7 ng/mL and 13.0 ng/mL and 7.9 ng/mL
- Blood concentration of (+)-13a-(S)-deoxytylophorinine (ng/ml), Mean ± SD [1, 8]: 9.2 ± 3.2 ng/mL
- Blood concentration of (+)-13a-(S)-deoxytylophorinine (ng/ml), individual animals 1-3 [1, 8]: 12.5 ng/mL and 6.2 ng/mL and 8.7 ng/mL
- Blood concentration of (+)-13a-(S)-deoxytylophorinine (ng/ml), Mean ± SD [1, 9]: 11.2 ± 8.0 ng/mL
- Blood concentration of (+)-13a-(S)-deoxytylophorinine (ng/ml), individual animals 1-3 [1, 9]: 2.0 ng/mL and 15.9 ng/mL and 15.7 ng/mL
- Blood concentration of (+)-13a-(S)-deoxytylophorinine (ng/ml), Mean ± SD [1, 10]: 8.6 ± 6.6 ng/mL
- Blood concentration of (+)-13a-(S)-deoxytylophorinine (ng/ml), individual animals 1-3 [1, 10]: 3.6 ng/mL and 16.1 ng/mL and 6.3 ng/mL
- Blood concentration of (+)-13a-(S)-deoxytylophorinine (ng/ml), Mean ± SD [1, 11]: 2.8 ± 0.9 ng/mL
- Blood concentration of (+)-13a-(S)-deoxytylophorinine (ng/ml), individual animals 1-3 [1, 11]: 2.6 ng/mL and 2.0 ng/mL and 3.8 ng/mL
- Blood concentration of (+)-13a-(S)-deoxytylophorinine (ng/ml), Mean ± SD [1, 12]: 1.2 ± 1.0 ng/mL
- Blood concentration of (+)-13a-(S)-deoxytylophorinine (ng/ml), individual animals 1-3 [1, 12]: 2.3 ng/mL and 1.0 ng/mL and 0.4 ng/mL
- AUC(0-inf) [1, 13]: 49.9 ng·h/mL
- AUC(0-t) [1, 13]: 46.9 ng·h/mL
- Cmax [1, 13]: 35.5 ng/mL
- MRT inf [1, 13]: 2.18 h
- MRT last [1, 13]: 1.78 h
- Tmax [1, 13]: 4.8 min
- Brain contents of (+)-13a-(S)-deoxytylophorinine (ng/ml), Mean ± SD ([2]; Time (min) 5): 150.2 ± 84.8 ng/mL
- Brain contents of (+)-13a-(S)-deoxytylophorinine (ng/ml), individual animals 1-3 ([2]; Time (min) 5): 245.2 ng/mL and 82.5 ng/mL and 122.7 ng/mL
- Brain contents of (+)-13a-(S)-deoxytylophorinine (ng/ml), Mean ± SD ([2]; Time (min) 15): 150.3 ± 49.8 ng/mL
- Brain contents of (+)-13a-(S)-deoxytylophorinine (ng/ml), individual animals 1-3 ([2]; Time (min) 15): 159.3 ng/mL and 96.6 ng/mL and 194.9 ng/mL
- Brain contents of (+)-13a-(S)-deoxytylophorinine (ng/ml), Mean ± SD ([2]; Time (min) 120): 108.8 ± 74.7 ng/mL
- Brain contents of (+)-13a-(S)-deoxytylophorinine (ng/ml), individual animals 1-3 ([2]; Time (min) 120): 27.2 ng/mL and 173.7 ng/mL and 125.4 ng/mL
- Drug contents in brain compared with prototype ([2]; oral, 3 time points): higher than their prototype
